# Experiments:
# [1] = system: IL-17 production by CD4 T cells; test: Human Th17 assay (IL-17 production by CD4 T cells under Th17 differentiation); format: cell-based; settings: Homo sapiens, CD4+ T, 72 h, human CD4+ T cells, IL-17 after 3 days; read-out: Human Th17 Assay, IC50 μM
# Method in brief: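 Healthy-donor peripheral CD4+ T cells (1.5×10^5/well) preincubated 1 h with titrated compound (0.2% DMSO), then differentiated with anti-CD3/CD28 beads, anti-IL4, anti-IFNγ, IL1β, IL23, IL6, TGFβ and IL2 for 3 days at 37 °C. Supernatant IL-17 quantified by MSD electrochemiluminescence against a standard curve; IC50 fitted.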
# [2] = molecular target: human RORγt ligand binding domain (RORγt LBD) (Homo sapiens (Human), UniProt P51449); test: RORγt ThermoFluor assay (thermal shift binding affinity); settings: estimated from thermal shift
# Method in brief: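 Thermal shift used 0.065 mg/mL RORγt LBD with 60 μM 1,8-ANS in 100 mM Hepes pH 7.0, 10 mM NaCl, 2.5 mM GSH and 0.002% Tween-20, heated at 1 °C/min. Fluorescence was excited at 380–400 nm and emission read at 500 nm.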
# [3] = molecular target: human RORγt LBD (Homo sapiens (Human), UniProt P51449); test: RORγt reporter assay (GAL4-RORγt LBD luciferase in HEK293T cells); format: cell-based; settings: for IC50: HEK293T cells, 24 hours compound treatment; for inhibition at 6 µM: HEK-293T, read-out: RORγt reporter Assay, % inhibition @ 6 μM, HEK293T cells, 6 μM
# Method in brief: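 HEK293T cells transiently co-transfected with GAL4-DBD–wild-type human RORγt LBD (pBIND) and GAL4-responsive firefly luciferase reporter (pGL4.31); renilla luciferase from pBIND normalises transfection/viability. Cells in phenol-red-free DMEM, 5% lipid-reduced FCS, treated with compound 24 h. Firefly/renilla ratio plotted against compound concentration.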
# Sequence of human RORγt LBD (P51449 258-518): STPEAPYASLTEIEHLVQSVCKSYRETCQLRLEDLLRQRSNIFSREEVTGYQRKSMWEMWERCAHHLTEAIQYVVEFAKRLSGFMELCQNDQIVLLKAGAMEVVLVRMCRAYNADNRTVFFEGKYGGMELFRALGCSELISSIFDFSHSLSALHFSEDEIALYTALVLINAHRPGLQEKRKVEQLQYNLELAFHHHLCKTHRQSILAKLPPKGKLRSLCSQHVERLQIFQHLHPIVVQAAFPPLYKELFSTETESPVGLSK
# Sequence of human RORγt ligand binding domain (RORγt LBD) (P51449 other isoform, or with tags, fused parts or gaps): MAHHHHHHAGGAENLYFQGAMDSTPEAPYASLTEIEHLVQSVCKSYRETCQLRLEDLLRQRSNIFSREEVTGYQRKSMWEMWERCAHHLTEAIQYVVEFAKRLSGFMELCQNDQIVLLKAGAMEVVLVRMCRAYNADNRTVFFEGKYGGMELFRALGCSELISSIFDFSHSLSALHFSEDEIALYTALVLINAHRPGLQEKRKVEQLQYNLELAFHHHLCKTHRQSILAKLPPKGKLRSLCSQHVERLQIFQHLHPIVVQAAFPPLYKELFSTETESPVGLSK
Structure (SMILES),IC50 [1] [µM],Kd [2] [nM],IC50 [3] [µM],inhibition at 6 µM [3] [%]
"OC(c1cccnc1)(c1cccc(F)c1)c1ccc2nc(Cl)c(Cc3ccc(-n4cccn4)cc3)c(Cl)c2c1 (centres unmarked) [Example 48, (3-(4-(1H-Pyrazol-1-yl)benzyl)-2,4-dichloroquinolin-6-yl)(3-fluorophenyl)(pyridin-3-yl)methanol]",0.04,10,0.058,100
"Cc1cc(C(O)(c2ccc(Cl)cc2)c2cncn2C)cc2c(Cl)c(Cc3ccc(-n4cccn4)cc3)c(Cl)nc12 (centres unmarked) [Example 85, (3-(4-(1H-Pyrazol-1-yl)benzyl)-2,4-dichloro-8-methylquinolin-6-yl)(4-chlorophenyl)(1-methyl-1H-imidazol-5-yl)methanol]",0.3,85,0.29,97

# Results, then the molecule that gave them:
IC50 [1] [µM],Kd [2] [nM],IC50 [3] [µM],inhibition at 6 µM [3] [%],Structure (SMILES)
0.18,140,0.17,102,"COc1ccc(C(O)(c2cccnc2)c2ccc3nc(Cl)c(Cc4ccc(-n5cccn5)cc4)c(Cl)c3c2)cc1 (centres unmarked) [Example 47, (3-(4-(1H-Pyrazol-1-yl)benzyl)-2,4-dichloroquinolin-6-yl)(4-methoxyphenyl)(pyridin-3-yl)methanol]"
0.0015,0.024,0.0025,94,"COc1nc2ccc(C(O)(c3sc(C)nc3C)c3cnnn3C)cc2c(Cl)c1Cc1ccc(C(F)(F)F)cc1 (centres unmarked) [Example 79C, (4-Chloro-2-methoxy-3-(4-(trifluoromethyl)benzyl)quinolin-6-yl)(2,4-dimethylthiazol-5-yl)(1-methyl-1H-1,2,3-triazol-5-yl)methanol]"
0.01,0.017,0.16,87,"COc1nc2ccc(C(O)(c3cnc(C)n3C)c3cnc(C)n3C)cc2c(Cl)c1Cc1ccc(C(F)(F)F)cc1 [Example 93, (4-Chloro-2-methoxy-3-(4-(trifluoromethyl)benzyl)quinolin-6-yl)bis(1,2-dimethyl-1H-imidazol-5-yl)methanol]"
